Measurements reported in patent US20130102493A1, “GENE EXPRESSION ANALYSES FOR CHARACTERIZING AND IDENTIFYING GENOTOXIC COMPOUNDS” (MERCK PATENT GESELLSCHAFT MIT BESCHRANKTER HAFTUNG, priority 2010, published 2013).
Like-named read-outs stand apart in the source and are kept apart here. Marks after values point to notes of the source that are not given here. *1 amine or outer side, *2 acyl side, *3 side chain or, on linkers, in order; H or OH if unused. Where a SMILES comes first, the peptide text is derived from it. Bridges are numbered along the chain shown (N, C = ends). Roman numbers before positions name the chains, in order. [ ]: non-standard residue; d: D form. Actinocin(9to1) = Cc1c2oc3c(C)ccc(C(=O)[*:1])c3nc-2c(C(=O)[*:2])c(N)c1=O; NMeV = CN[C@H](C(=O)O)C(C)C; Sar = CNCC(=O)O

Experiments:
[1] = system: HepG2 cells
[2] = system: HepG2 cells; remark: listed apart in the source
[3] = system: HepG2 cells; remark: listed apart in the source
[4] = system: CYP competent primary hepatocytes; settings: cited from earlier work

Cc1c2oc3c(C)ccc(C(=O)N[C@@H]4C(=O)N[C@H](C(C)C)C(=O)N5CCC[C@H]5C(=O)N(C)CC(=O)N(C)[C@@H](C(C)C)C(=O)O[C@@H]4C)c3nc-2c(C(=O)N[C@@H]2C(=O)N[C@H](C(C)C)C(=O)N3CCC[C@H]3C(=O)N(C)CC(=O)N(C)[C@@H](C(C)C)C(=O)O[C@@H]2C)c(N)c1=O [ACT, actinomycin D] (I: T[dV]P[Sar][NMeV] / II: T[dV]P[Sar][NMeV]; ester I:1-I:C, II:1-II:C; linker I:N-II:N via Actinocin(9to1))
Categorization ([1]; 250 nM, 24 h, without S9): genotoxic
Categorization ([1]; 250 nM, 48 h, without S9): genotoxic
MYC gene regulation [2]: down-regulated
RNA polymerase II gene regulation [2]: down-regulation
topoisomerase II (TOPO2) gene regulation [2]: down-regulation
CDKN1A gene regulation relative to vehicle/S9 control ([2]; ACT 250 nM, without S9, 48 h): −1.15 fold
CRABP2 gene regulation relative to vehicle/S9 control ([2]; ACT 250 nM, without S9, 48 h): 2.82* fold
EMP1 gene regulation relative to vehicle/S9 control ([2]; ACT 250 nM, without S9, 48 h): 1.91* fold
EMP3 gene regulation relative to vehicle/S9 control ([2]; ACT 250 nM, without S9, 48 h): 5.68* fold
IER5 gene regulation relative to vehicle/S9 control ([2]; ACT 250 nM, without S9, 48 h): 3.07* fold
LGALS7 gene regulation relative to vehicle/S9 control ([2]; ACT 250 nM, without S9, 48 h): 1.69* fold
PLAU gene regulation relative to vehicle/S9 control ([2]; ACT 250 nM, without S9, 48 h): 3.69* fold
PROCR gene regulation relative to vehicle/S9 control ([2]; ACT 250 nM, without S9, 48 h): 2.58* fold

O=P1(N(CCCl)CCCl)NCCCO1 (centres unmarked) [CPA, cyclophosphamide]
EGR1 gene regulation [2]: up-regulation
gene expression changes, single compound analysis vs vehicle controls [2]: extremely weak or no statistically significant

CCN(CC)N=O [DEN, N-nitrosodiethylamine]
classification by 91 gene-classifier ([3]; with S9 (MAS)): genotoxic
classification by 91 gene-classifier ([3]; without S9): non-genotoxic
EGR1 gene regulation [2]: up-regulation
number of down-regulated genes [2]: 57
number of up-regulated genes [2]: 88
CDKN1A gene regulation relative to vehicle/S9 control ([2]; DEN 25 mM, +S9, 48 h): 1.95* fold
CRABP2 gene regulation relative to vehicle/S9 control ([2]; DEN 25 mM, +S9, 48 h): 2.09* fold
EMP1 gene regulation relative to vehicle/S9 control ([2]; DEN 25 mM, +S9, 48 h): 1.84* fold
EMP3 gene regulation relative to vehicle/S9 control ([2]; DEN 25 mM, +S9, 48 h): 2.26* fold
IER5 gene regulation relative to vehicle/S9 control ([2]; DEN 25 mM, +S9, 48 h): 1.50* fold
LGALS7 gene regulation relative to vehicle/S9 control ([2]; DEN 25 mM, +S9, 48 h): 1.77 fold
PLAU gene regulation relative to vehicle/S9 control ([2]; DEN 25 mM, +S9, 48 h): 1.84 fold
PROCR gene regulation relative to vehicle/S9 control ([2]; DEN 25 mM, +S9, 48 h): 1.76* fold
CDKN1A gene regulation relative to vehicle/S9 control ([2]; DEN 25 mM, without S9, 48 h): −1.19 fold
CRABP2 gene regulation relative to vehicle/S9 control ([2]; DEN 25 mM, without S9, 48 h): 1.54* fold
EMP1 gene regulation relative to vehicle/S9 control ([2]; DEN 25 mM, without S9, 48 h): 1.61* fold
EMP3 gene regulation relative to vehicle/S9 control ([2]; DEN 25 mM, without S9, 48 h): 1.04 fold
IER5 gene regulation relative to vehicle/S9 control ([2]; DEN 25 mM, without S9, 48 h): 1.06 fold
LGALS7 gene regulation relative to vehicle/S9 control ([2]; DEN 25 mM, without S9, 48 h): 1.11 fold
PLAU gene regulation relative to vehicle/S9 control ([2]; DEN 25 mM, without S9, 48 h): 1.86* fold
PROCR gene regulation relative to vehicle/S9 control ([2]; DEN 25 mM, without S9, 48 h): 1.30 fold
CDKN1A gene regulation relative to vehicle/S9 control ([2]; DEN 50 mM, +S9, 48 h): 2.20* fold
CRABP2 gene regulation relative to vehicle/S9 control ([2]; DEN 50 mM, +S9, 48 h): 1.80* fold
EMP1 gene regulation relative to vehicle/S9 control ([2]; DEN 50 mM, +S9, 48 h): 2.09* fold
EMP3 gene regulation relative to vehicle/S9 control ([2]; DEN 50 mM, +S9, 48 h): 2.03* fold
IER5 gene regulation relative to vehicle/S9 control ([2]; DEN 50 mM, +S9, 48 h): 1.51 fold
LGALS7 gene regulation relative to vehicle/S9 control ([2]; DEN 50 mM, +S9, 48 h): 1.97* fold
PLAU gene regulation relative to vehicle/S9 control ([2]; DEN 50 mM, +S9, 48 h): 1.59* fold
PROCR gene regulation relative to vehicle/S9 control ([2]; DEN 50 mM, +S9, 48 h): 1.63* fold
CDKN1A gene regulation relative to vehicle/S9 control ([2]; DEN 50 mM, without S9, 48 h): −1.48* fold
CRABP2 gene regulation relative to vehicle/S9 control ([2]; DEN 50 mM, without S9, 48 h): 1.40 fold
EMP1 gene regulation relative to vehicle/S9 control ([2]; DEN 50 mM, without S9, 48 h): 1.37 fold
EMP3 gene regulation relative to vehicle/S9 control ([2]; DEN 50 mM, without S9, 48 h): 1.02 fold
IER5 gene regulation relative to vehicle/S9 control ([2]; DEN 50 mM, without S9, 48 h): 1.03 fold
LGALS7 gene regulation relative to vehicle/S9 control ([2]; DEN 50 mM, without S9, 48 h): 1.23* fold
PLAU gene regulation relative to vehicle/S9 control ([2]; DEN 50 mM, without S9, 48 h): 1.44 fold
PROCR gene regulation relative to vehicle/S9 control ([2]; DEN 50 mM, without S9, 48 h): 1.20 fold
concentrations giving a positive response [4]: 10000 to 32000 µM

Cc1c2ccccc2c(C)c2c1ccc1ccccc12 [DMBA, 7,12-dimethylbenz[a]anthracene]
prediction using the 91 top-scored genes ([3]; 75 μM w/o S9): predicted correctly
Categorization ([1]; 10 μM, 48 h, with S9): genotoxic
Categorization ([1]; 75 μM, 48 h, without S9): genotoxic^#
Categorization ([1]; DMBA 10 μM, 48 h, without S9): non-genotoxic
gene expression changes, single compound analysis vs vehicle controls ([2]; DMBA 10 μM w/o S9): extremely weak or no statistically significant
CDKN1A gene regulation relative to vehicle/S9 control ([2]; DMBA 10 μM, +S9, 48 h): 3.18* fold
CRABP2 gene regulation relative to vehicle/S9 control ([2]; DMBA 10 μM, +S9, 48 h): 2.31* fold
EMP1 gene regulation relative to vehicle/S9 control ([2]; DMBA 10 μM, +S9, 48 h): 1.93* fold
EMP3 gene regulation relative to vehicle/S9 control ([2]; DMBA 10 μM, +S9, 48 h): 2.61* fold
IER5 gene regulation relative to vehicle/S9 control ([2]; DMBA 10 μM, +S9, 48 h): 1.83* fold
LGALS7 gene regulation relative to vehicle/S9 control ([2]; DMBA 10 μM, +S9, 48 h): 1.93* fold
PLAU gene regulation relative to vehicle/S9 control ([2]; DMBA 10 μM, +S9, 48 h): 2.13* fold
PROCR gene regulation relative to vehicle/S9 control ([2]; DMBA 10 μM, +S9, 48 h): 2.26* fold
CDKN1A gene regulation relative to vehicle/S9 control ([2]; DMBA 10 μM, without S9, 48 h): 1.36 fold
CRABP2 gene regulation relative to vehicle/S9 control ([2]; DMBA 10 μM, without S9, 48 h): 1.10 fold
EMP1 gene regulation relative to vehicle/S9 control ([2]; DMBA 10 μM, without S9, 48 h): 1.11 fold
EMP3 gene regulation relative to vehicle/S9 control ([2]; DMBA 10 μM, without S9, 48 h): 1.18 fold
IER5 gene regulation relative to vehicle/S9 control ([2]; DMBA 10 μM, without S9, 48 h): 1.30* fold
LGALS7 gene regulation relative to vehicle/S9 control ([2]; DMBA 10 μM, without S9, 48 h): 1.25* fold
PLAU gene regulation relative to vehicle/S9 control ([2]; DMBA 10 μM, without S9, 48 h): 1.29* fold
PROCR gene regulation relative to vehicle/S9 control ([2]; DMBA 10 μM, without S9, 48 h): 1.18 fold
regulation of the 91 genes ([2]; DMBA 75 μM w/o S9): relatively weak
CDKN1A gene regulation relative to vehicle/S9 control ([2]; DMBA 75 μM, without S9, 48 h): 1.50* fold
CRABP2 gene regulation relative to vehicle/S9 control ([2]; DMBA 75 μM, without S9, 48 h): 1.27 fold
EMP1 gene regulation relative to vehicle/S9 control ([2]; DMBA 75 μM, without S9, 48 h): 1.31 fold
EMP3 gene regulation relative to vehicle/S9 control ([2]; DMBA 75 μM, without S9, 48 h): 1.38* fold
IER5 gene regulation relative to vehicle/S9 control ([2]; DMBA 75 μM, without S9, 48 h): 1.26* fold
LGALS7 gene regulation relative to vehicle/S9 control ([2]; DMBA 75 μM, without S9, 48 h): 1.26 fold
PLAU gene regulation relative to vehicle/S9 control ([2]; DMBA 75 μM, without S9, 48 h): 1.53* fold
PROCR gene regulation relative to vehicle/S9 control ([2]; DMBA 75 μM, without S9, 48 h): 1.32* fold

COS(C)(=O)=O [MMS, methyl methanesulfonate]
EGR1 gene regulation [2]: up-regulation
MYC gene regulation [2]: down-regulated
AP endonuclease 2 (APEX2) gene regulation ([2]; after 24 h and 48 h treatment): up-regulated
β-polymerase (POLB) gene regulation ([2]; after 48 h exposure): up-regulated

aflatoxin B1 [AFB1]
EGR1 gene regulation [2]: up-regulation
gene expression changes, single compound analysis vs vehicle controls [2]: extremely weak or no statistically significant
